Data: patent US20120202801A1, “METHODS FOR TREATING BREAST CANCER” (priority 2009, published 2012)
Marks after values point to notes of the source that are not given here.

What was measured:
[1] = test system: hypoxia-inducible endogenous VEGF expression; assay: Hypoxia-inducible endogenous VEGF expression ELISA in HeLa cells, dose-response (EC50, Table 3); conditions: Homo sapiens, read-out: ELISA EC50 μM
[2] = test system: human VEGF121 and VEGF165; assay: Intra-tumor and pathologic plasma human VEGF in HT1080 xenografts, Compound 1205 (studies #21, #23); type: in vivo, mice
Text: Experimental Design. HT1080 cells (5×10^6 cells/mice) were implanted subcutaneously into male athymic nude mice. Treatment with vehicle alone or Compound 1205 was initiated when the median tumor volume was approximately 311±88 mm^3. Table 7 and Table 9 (study design #21 and #23) provide the study design for assessing tumor and plasma pathologic VEGF concentrations—each group in each study included eight (8) mice. When the tumors in vehicle-treated mice had reached the target size of ˜1200 mm^3 for study #21 and ˜1500 mm^3 for study #23, all mice in the study were sacrificed, and excised tumors were homogenized in buffer containing protease inhibitors. Both intra-tumor and pathologic plasma human VEGF levels were measured using an ELISA that recognizes human VEGF121 and VEGF165. Intra-tumor VEGF levels were normalized to the total tumor protein concentration and pathologic plasma VEGF levels were expressed in pg/mL. Because smaller tumors produce less VEGF per mg of tumor protein, intra-tumor VEGF levels were normalized to tumor size.

[3] = test system: HT1080 xenografts; assay: HT1080 xenograft tumor growth, Compound 1205, 1330 and Compound #10 (studies 21-24b); type: in vivo, mice
Text: Experimental Design. HT1080 cells (5×10^6 cells/mouse) were implanted subcutaneously in male athymic nude mice. […] For comparison, Compound #10 was included in this study.

[4] = test system: MCF-7p xenografts; assay: Aggressive MCF-7p estrogen-sensitive breast cancer xenograft, combination with paclitaxel; type: in vivo, mice
Description: (§1) Experimental Design. Aggressively growing, estrogen-sensitive MCF 7 breast cancer cells (hereafter referred to as MCF-7p) were passaged in vivo prior to use to generate a more aggressive cell line. Tumors were excised from donor mice, passed through a sterile mesh, and suspended in 0.9% sodium chloride, and 20 mg of this suspension was mixed 1:1 with Matrigel™. These tumor fragments were implanted subcutaneously into female athymic nude mice bearing estrogen pellets (0.72 mg/pellet) that had been inserted 2 days previously. After 28 days, when the tumors had become established and grown to a substantial size (i.e., the mean tumor size had reached ˜430 mm^3), mice were divided into 4 groups, and treatment was administered as shown in Table 30.
Tumor size was measured by calipers at periodic intervals during the study. After tumors in a given group had reached an average size of ˜1500 mm^3, the mice in that group were sacrificed; after 72 days of treatment, any remaining groups were taken off study.

[5] = test system: MCF-7 xenografts; assay: MCF-7 estrogen-sensitive breast cancer xenograft, combination with tamoxifen; type: in vivo, mice
Description: Experimental Design. […] Estrogen pellets (0.72 mg/pellet) were implanted in the mice 9 days prior to cell implantation.
Tumor size was measured by calipers at periodic intervals during the study. After 42 days of treatment, the mice were sacrificed.

[6] = test system: MCF-7p xenografts; assay: Aggressive MCF-7p estrogen-sensitive breast cancer xenograft, combination with tamoxifen; type: in vivo, mice
Description: as §1, with “Aggressively” for “Experimental Design. Aggressively”, “˜435” for “˜430”, “34.” for “30.”
Tumor size was measured by calipers at periodic intervals during the study. When the mean tumor size in a group had reached 1500 mm^3, or after 72 days of treatment, the mice in the group were sacrificed.

[7] = test system: HT1080 xenografts; assay: Time course of tumor size and plasma human VEGF in HT1080 xenografts; type: in vivo, mice; conditions: by Day 1
Description: (§2) Experimental Design. HT1080 cells (5×10^6 cells/mouse) were implanted subcutaneously in male athymic nude mice.
Tumor size was measured by calipers immediately pre-treatment and at the time of sacrifice on Day 1, 2, or 3 (5 mice per group per day). At sacrifice, the plasma was collected for assay of pathologic human VEGF concentration using an ELISA that recognizes human VEGF121 and VEGF165 (as described in Section 9.1.1.1).

[8] = test system: HT1080 xenografts; assay: BrdU labeling of tumor cells from HT1080 xenografts in vivo; parameters: species or system mice; conditions: 1, 2, or 3 days of treatment
Description: as §2
The mice were sacrificed 3 hours later, and the tumors collected. A single cell suspension was prepared from the tumor cells. The cells were permeabilized and an antibody to BrdU was used to stain cells that had entered S phase during the labeling period. The proportion of cells actively synthesizing DNA was determined by cell sorting.

[9] = test system: HT1080 cells; assay: Cell cycle analysis by propidium iodide flow cytometry in HT1080 cells (% cells in S-phase); type: cell-based, human
Description: Experimental Design. […] After treatment, cells were trypsinized, and stained with propidium iodide (PI) dye to measure DNA content of individual cells by flow cytometry. Output comprised histograms showing relative DNA content in 10,000 cells.
While compounds which cause greater than 20% of the cells to accumulate in S-phase at 100 nM are considered active, a larger percentage of cells may be accumulated in S-phase at lower doses depending on the Compound, as shown in FIG. 12 for example.

[10] = test system: aromatase-overexpressing MCF-7 xenografts; assay: Aromatase-overexpressing MCF-7 breast cancer xenograft, combination with letrozole; type: in vivo, mice; conditions: for Mean % Inhibition of Tumor Size vs Vehicle at Day 42 / Proportion Cured: aromatase-overexpressing MCF-7 xenografts, nude mice
Description: Experimental Design. Aromatase-overexpressing, estrogen-sensitive MCF-7 cells (7.0×10^6 cells/mouse) were implanted subcutaneously in ovariectomized female athymic nude mice. Androstenedione pellets (6 mg/pellet) were implanted 1 day prior to cell implantation.
Tumor size was measured by calipers at periodic intervals during the study. When the individual tumor size in a mouse exceeded 1500 mm^3, or after 98 days of treatment, that mouse was sacrificed.

[11] = Paclitaxel alone, 10 mg/kg IV Days 2, 5, 9, 12, 15, nude mice
[12] = 42 days of treatment, combination = Compound #10 with tamoxifen
[13] = Tamoxifen alone, 10 mg/kg QD, nude mice
[14] = Tamoxifen alone, 8 mg/kg Oral QD, nude mice
[15] = Letrozole (high-dose), 30 μg/mouse Oral QD
[16] = Letrozole (low-dose), 10 μg/mouse Oral QD

In the case of `COCCN(C)CCCOc1ccc(C2c3[nH]c4ccc(Cl)cc4c3CCN2C(=O)Oc2ccc(F)cc2)cc1` (stereo not drawn) [Compound 992], the EC50 [1] is reported as 0.04 to 0.2 µM.
For `CN1CCN(CCCOc2ccc(C3c4[nH]c5ccc(Cl)cc5c4CCN3C(=O)Oc3ccc(F)cc3)cc2)CC1` (stereo not drawn) [Compound 993], the EC50 [1] was less than 0.008 µM.
With `O=C(Oc1ccc(Cl)cc1)N1CCc2c([nH]c3ccc(Cl)cc23)[C@@H]1c1ccc(OCC[C@H](O)CO)cc1` [Compound 1205] the “inhibition of both tumor and pathologic plasma human VEGF levels” value ([2]; 0.5 or 3 mg/kg QD) was “more than 95%”, the “Mean difference in human tumor VEGF (%) at Day 14” value ([2]; Study #21, 3 mg/kg QD, 14 days) was 98%** and the “Final mean terminal tumor size in treatment group” value (“Final mean terminal tumor size” for short) ([3]; Study 21: 3 mg/kg QD) was 379 mm^3. The “Final mean terminal tumor size” value ([3]; Study 22: 0.5 mg/kg QD) was 1750 mm^3, the “Difference vs. vehicle in median number of days to reach 1000 mm^3” value (“Difference vs. vehicle in median number” for short) ([3]; Study 22: 3 mg/kg QD) was 14** Days and the “Final mean terminal tumor size” value ([3]; Study 22: 3 mg/kg QD) was 1840 mm^3. The “Difference vs. vehicle in median number” value ([3]; Study 24a: 10 mg/kg QD) was 14** Days, the “Mean difference in tumor growth rate at the Day that the vehicle-treated tumors taken off study (%)” value ([3]; Study 24a: 10 mg/kg QD, Day 11) was 76%** and the “Difference vs. vehicle in median number” value ([3]; Study 24b: 0.3 mg/kg QD) was 0.7 days. The “Final mean terminal tumor size” value ([3]; Study 24b: 0.3 mg/kg QD) was 1540 mm^3.
In the case of `Cc1ccc(OC(=O)N2CCc3c([nH]c4ccc(Cl)cc34)[C@@H]2c2ccc(OCCC(O)CN3CCOCC3)cc2)cc1` (stereo partly drawn) [Compound 1302], the EC50 [1] is reported as 0.04 to 0.2 µM.
Work on `CN(C)CCN(C)CCCOc1ccc([C@H]2c3[nH]c4ccc(Cl)cc4c3CCN2C(=O)Oc2ccc(Cl)cc2)cc1` [Compound 1611] yielded an EC50 [1] of less than 0.008 µM.
With `COc1ccc(C2c3[nH]c4ccc(Cl)cc4c3CCN2C(=O)Oc2ccc(Cl)cc2)cc1` (stereo not drawn) [Compound #10] the EC50 [1] was less than 0.008 µM.
For `CC(=O)O[C@H]1C(=O)[C@@]2(C)[C@H]([C@H](OC(=O)c3ccccc3)[C@]3(O)C[C@H](OC(=O)[C@H](O)[C@@H](NC(=O)c4ccccc4)c4ccccc4)C(C)=C1C3(C)C)[C@]1(OC(C)=O)CO[C@@H]1C[C@@H]2O` [Paclitaxel, paclitaxel], the tumor growth [4] was “transient cytoreduction and a tumor growth delay”, the “Mean % Inhibition of Tumor Size vs Vehicle at Day 26” value [4, 11] was 78* % and the “Median Time to Tumor Size ≧1000 mm^3” value [4, 11] was 47 days.
With `CC/C(=C(\c1ccccc1)c1ccc(OCCN(C)C)cc1)c1ccccc1` [Tamoxifen, tamoxifen] the “mice cured (%)” value [5, 12] was 70%, the “mice cured (number)” value [5, 12] was 7 of the 10 and the “Mean % Inhibition of Tumor Size vs Vehicle at Day 42” value (from here on “Mean % Inhibition … at Day 42”) [5, 13] was 84%. For the same molecule, the “Proportion Cured” value [5, 13] was 70%, the “tumor regression and growth delay” value ([5]; combination = Compound #10 with tamoxifen) was “tumor regression and growth delay were observed” and the tumor growth [6] was “only modestly delayed tumor growth”. For the same molecule, the “Mean % Inhibition of Tumor Size vs Vehicle at Day 26” value [6, 14] was 33* % and the “Median Time to Tumor Size ≧1000 mm^3” value [6, 14] was 24 days.
With `COc1cccc2c1C(=O)c1c(O)c3c(c(O)c1C2=O)C[C@@](O)(C(=O)CO)C[C@@H]3O[C@H]1C[C@H](N)[C@H](O)[C@H](C)O1` [doxorubicin] the “pathologic plasma human VEGF levels vs control” value [7] was “numerically lower than in control animals” and the “BrdU staining of tumor cells (proportion of cells in S phase)” value [8] was “decreased the percentage of tumor cells staining with BrdU”.
`O=C(Oc1ccc(Cl)cc1)N1CCc2c([nH]c3ccc(Cl)cc23)C1c1ccc(OCCN2CCOCC2)cc1` (stereo not drawn) [drawing 535] was tested, and the “% Cells In S-Phase” value ([9]; HT1080 cells, 100 nM, 18 hours, normoxic, DMSO control 17.3) was 16.4%.
For `N#Cc1ccc(C(c2ccc(C#N)cc2)n2cncn2)cc1` [letrozole], the “Mean % Inhibition … at Day 42” value [10, 15] was 79%, the “Proportion Cured” value [10, 15] was 20% and the “Mean % Inhibition … at Day 42” value [10, 16] was 72%. For the same molecule, the “Proportion Cured” value [10, 16] was 10%, the tumor growth ([10]; high-dose letrozole) was “tumor regression was observed” and the tumor growth ([10]; low-dose letrozole) was “tumor growth was prevented but tumor reduction was not observed”.
In the case of `NC(Cn1ccc(=O)c(O)c1)C(=O)O` (stereo not drawn) [mimosine, reference compound], the “delay or prolongation of the cell cycle” value ([9]; same tumor cells, data not shown) is reported as “does not delay or prolong the cell cycle or reduce VEGF production”.
